In ChEMBL document CHEMBL4680269, “N-benzylpiperidinol derivatives as novel USP7 inhibitors: Structure-activity relationships and X-ray crystallographic studies” (Eur J Med Chem, 2020):
Active and inactive are the calls of the source. No cut-off for these calls is given here.

Assays:
[1] = biological target: T1, Ubiquitin carboxyl-terminal hydrolase 7 (Homo sapiens, UniProt Q93009); assay: Inhibition of recombinant human N-terminal His6-tagged full length USP7 expressed in baculovirus infected Sf21 cells using monoubiquitinated ubiquitin-rhodamine as substrate incubated for 30 mins followed by Ub-Rho addition and measured after 2 hrs by spectrophotometry
Target sequence in this assay (Q93009 whole entry): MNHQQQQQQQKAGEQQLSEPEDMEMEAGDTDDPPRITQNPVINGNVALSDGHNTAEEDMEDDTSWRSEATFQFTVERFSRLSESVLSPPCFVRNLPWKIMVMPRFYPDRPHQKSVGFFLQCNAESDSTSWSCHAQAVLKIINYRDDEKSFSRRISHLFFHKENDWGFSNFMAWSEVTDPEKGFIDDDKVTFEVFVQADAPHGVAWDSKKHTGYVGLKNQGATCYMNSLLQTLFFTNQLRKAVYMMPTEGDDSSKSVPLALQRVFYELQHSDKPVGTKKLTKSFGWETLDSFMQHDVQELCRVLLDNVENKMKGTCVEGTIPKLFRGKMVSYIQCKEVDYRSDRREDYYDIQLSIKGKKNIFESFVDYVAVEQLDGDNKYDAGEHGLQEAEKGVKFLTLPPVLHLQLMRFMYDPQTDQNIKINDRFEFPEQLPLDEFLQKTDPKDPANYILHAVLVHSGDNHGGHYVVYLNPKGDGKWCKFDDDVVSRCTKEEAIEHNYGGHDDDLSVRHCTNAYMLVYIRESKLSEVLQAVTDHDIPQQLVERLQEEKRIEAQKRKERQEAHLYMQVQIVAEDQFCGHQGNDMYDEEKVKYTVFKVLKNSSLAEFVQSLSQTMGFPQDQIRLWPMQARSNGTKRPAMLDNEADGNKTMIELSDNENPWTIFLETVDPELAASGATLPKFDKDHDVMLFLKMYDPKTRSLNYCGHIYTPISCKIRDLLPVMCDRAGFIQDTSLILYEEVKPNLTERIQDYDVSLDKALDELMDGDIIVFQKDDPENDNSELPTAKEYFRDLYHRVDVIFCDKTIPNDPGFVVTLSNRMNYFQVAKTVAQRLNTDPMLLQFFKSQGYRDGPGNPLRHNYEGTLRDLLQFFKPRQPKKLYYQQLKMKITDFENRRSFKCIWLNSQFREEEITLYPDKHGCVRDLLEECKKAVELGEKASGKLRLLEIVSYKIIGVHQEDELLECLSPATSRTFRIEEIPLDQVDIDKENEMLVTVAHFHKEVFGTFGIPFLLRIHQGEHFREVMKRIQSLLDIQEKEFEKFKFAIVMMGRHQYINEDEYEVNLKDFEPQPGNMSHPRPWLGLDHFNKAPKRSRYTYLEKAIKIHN

[2] = biological target: T1, Ubiquitin carboxyl-terminal hydrolase 7; assay: Inhibition of recombinant human N-terminal His6-tagged full length USP7 expressed in baculovirus infected Sf21 cells at 10 uM using monoubiquitinated ubiquitin-rhodamine as substrate incubated for 30 mins followed by Ub-Rho addition and measured after 2 hrs by spectrophotometry relative to control; settings: time 2.5 hrs
Target sequence in this assay (Q93009 whole entry, looked up): as the sequence (Q93009 whole entry) above

SMILES	IC50 [1] [µM]	inhibition [2]
N#Cc1ccccc1CN1CCC(O)(Cn2cnc3c(cnn3-c3ccc(F)cc3)c2=O)CC1	8.1	–
O=c1c2cnn(-c3ccc(F)cc3)c2ncn1CC1(O)CCN(c2ncccn2)CC1	–	inactive
COC(=O)c1ccc(CN2CCC(O)(Cn3cnc4c(Br)n(C)nc4c3=O)CC2)c(Cl)c1	0.157	–
O=c1c2cnn(-c3ccc(F)cc3)c2ncn1CC1(O)CCN(c2ncccc2Br)CC1	–	32%
COC(=O)c1ccc(CN2CCC(O)(Cn3cnc4c(-c5ccc(CNC(C)=O)cc5)n(C)nc4c3=O)CC2)c(Cl)c1	0.121	–
O=c1c2cnn(-c3ccc(F)cc3)c2ncn1CC1(O)CCN(c2cccc(C(F)(F)F)n2)CC1	–	inactive
O=c1c2cnn(-c3ccc(F)cc3)c2ncn1CC1(O)CCN(Cc2ccccc2Br)CC1	3.1	–
O=c1c2cnn(-c3ccc(F)cc3)c2ncn1CC1(O)CCN(c2ccc3ccccc3n2)CC1	–	inactive
O=c1c2cnn(-c3ccc(F)cc3)c2ncn1CC1(O)CCN(c2ncccc2Cl)CC1	–	32%
O=c1c2cnn(-c3ccc(F)cc3)c2ncn1CC1(O)CCN(Cc2ccc(Br)cc2)CC1	6.7	–
O=Cc1cccnc1N1CCC(O)(Cn2cnc3c(cnn3-c3ccc(F)cc3)c2=O)CC1	–	inactive
CCOC(=O)c1csc(N2CCC(O)(Cn3cnc4c(cnn4-c4ccc(F)cc4)c3=O)CC2)n1	–	inactive
O=c1c2cnn(-c3ccc(F)cc3)c2ncn1CC1(O)CCN(Cc2ccc([N+](=O)[O-])cc2)CC1	9	–
O=c1c2cnn(-c3ccc(F)cc3)c2ncn1CC1(O)CCN(Cc2ccc(Cl)cc2)CC1	8	–
COC(=O)c1ccc(CN2CCC(O)(Cn3cnc4c(-c5ccc(CNC(=O)OC(C)(C)C)cc5)n(C)nc4c3=O)CC2)c(Cl)c1	0.209	–
N#Cc1cccnc1N1CCC(O)(Cn2cnc3c(cnn3-c3ccc(F)cc3)c2=O)CC1	–	inactive
O=Cc1cccc(N2CCC(O)(Cn3cnc4c(cnn4-c4ccc(F)cc4)c3=O)CC2)n1	–	inactive
O=c1c2cnn(-c3ccc(F)cc3)c2ncn1CC1(O)CCN(c2ccccn2)CC1	–	inactive
O=c1c2cnn(-c3ccc(F)cc3)c2ncn1CC1(O)CCN(c2nccs2)CC1	–	inactive
O=c1c2cnn(-c3ccc(F)cc3)c2ncn1CC1(O)CCN(c2ncccc2I)CC1	–	32%
O=c1c2cnn(-c3ccc(F)cc3)c2ncn1CC1(O)CCN(c2ncccc2F)CC1	–	inactive

The remaining lines, values ahead:

IC50 [1] [µM]	inhibition [2]	SMILES
1.6	–	O=c1c2cnn(-c3ccc(F)cc3)c2ncn1CC1(O)CCN(Cc2ccc(F)cc2Cl)CC1
0.8	–	COC(=O)c1ccc(CN2CCC(O)(Cn3cnc4c(cnn4-c4ccc(F)cc4)c3=O)CC2)c(F)c1
0.8	–	COC(=O)c1ccc(CN2CCC(O)(Cn3cnc4c(cnn4-c4ccc(F)cc4)c3=O)CC2)c(Cl)c1
9.8	–	O=c1c2cnn(-c3ccc(F)cc3)c2ncn1CC1(O)CCN(Cc2ccccc2F)CC1
11.4	–	N#Cc1cc(Cl)ccc1CN1CCC(O)(Cn2cnc3c(cnn3-c3ccc(F)cc3)c2=O)CC1
4.5	–	COC(=O)c1ccc(CN2CCC(O)(Cn3cnc4c(cnn4-c4ccc(F)cc4)c3=O)CC2)cc1
3.3	–	O=c1c2cnn(-c3ccc(F)cc3)c2ncn1CC1(O)CCN(Cc2ccc(Cl)cc2Cl)CC1
1.9	–	O=c1c2cnn(-c3ccc(F)cc3)c2ncn1CC1(O)CCN(Cc2ccc(Br)cc2Cl)CC1
0.9	–	COC(=O)c1ccc(CN2CCC(O)(Cn3cnc4c(cnn4-c4ccc(F)cc4)c3=O)CC2)c(Br)c1
3.4	–	O=c1c2cnn(-c3ccc(F)cc3)c2ncn1CC1(O)CCN(Cc2ccccc2Cl)CC1
